± gives the expanded uncertainty stated by the source.
Columns and labels:
[1] = refractive index (Na D-line) (dimensionless); conditions: 298.2 K; 101.33 kPa; Liquid; Standard Abbe refractometry
[2] = 101.33 kPa, Liquid, Vibrating tube method

refractive index [1] | mass density ([2]; 293.2 K) | mass density ([2]; 298.2 K) | SMILES
1.4586 ± 0.0008 | 843.94 ± 0.24 kg/m3 |  | CCCCCCCCCCCCS [1-dodecanethiol]
1.4349 ± 0.0008 |  | 826.48 ± 0.24 kg/m3 | CCCCCCCCCCO [decan-1-ol]
1.4412 ± 0.0008 |  | 829.76 ± 0.24 kg/m3 | CCCCCCCCCCCCO [dodecan-1-ol]
